In patent US11518823B2, “Photoinitiators for light-curable compositions” (priority 2017, dated 2022):
Where “and” joins values, the source holds several entries; their conditions need not be identical. Equal values may be shown once.

Assays:
[1] = test system: mouse fibroblast cell line L929; format: cell-based
From the text: This may constitute an additional advantage for biological applications in which hydrogels are commonly used.

[2] = photo-DSC of hydrogel formulation with PEG700DA and 50 wt % water
Method: (§1) In the following examples, of the inventive use of compounds of formula (I) as photo-initiators, reaction mixtures containing the respective photoinitiator, the specified liquid monomer and optionally a specified co-intiator were produced and cured for 10 min under a nitrogen atmosphere by exposure to an OmniCure® S2000 mercury lamp having a wave length filter of 320 to 500 nm and an UV light intensity of 1 W/cm^2, while the progress of the reactions was monitored by photo-DSC type NETSCH DSC 204 F1 Phoenix.
(§2) All measurements were carried out at least twice, the respective tables showing the average values for the respective initiators.
(§3) In the tables, RP represents the polymerization rate and is thus an indicator of the reactivity of a system. A high value means that many monomer groups are reacted at the same time and that the curing process is generally shorter. tmax is the time (in s) it takes until maximum heat development is reached and is thus an indicator of how long it takes to reach the gelling point and thus a certain initial solidity. Short times are thus more desirable. t95% is the time (in s) after which 95% of the entire reaction heat have been released and is thus an indicator of the rate at which a reaction occurs, lower values again being advantageous. DBC is the double bond conversion rate calculated based on the reaction heat released during polymerization (in J per g) of the respective formulation. For the conversion rate, it is desirable to achieve values that are as high as possible.
(§4) In all formulations, the respective photoinitiator was used in an equimolar amount with respect to 1 wt % of ethyl pyruvate (1), which was the initiator having the lowest molecular weight, and weighed in accordingly, and co-initiators, if contained, were weighed in equimolar amounts with respect to the respective initiator. Subsequently, 12±0.5 mg of the reaction mixtures were weighed into DSC aluminum pans, and the pans were covered with cover glasses.
(§5) PBQ was used as a commercially available reference initiator, with MDEA as a co-initiator. The ketoesters ethyl pyruvate (1) and dimethylfurandione (8) can be used as novel initiators without any co-initiator. Due to its longwave absorption maximum (λmax=378 nm instead of 330 nm for compound (1)), compound (8) can also be used using visible light which is harmless for cells.

[3] = photo-DSC monitoring of photopolymerization in dental dimethacrylate mixture
Method: All measurements were carried out at least twice, the respective tables showing the average values for the respective initiators. In the tables, RP represents the polymerization rate and is thus an indicator of the reactivity of a system. A high value means that many monomer groups are reacted at the same time and that the curing process is generally shorter. tmax is the time (in s) it takes until maximum heat development is reached and is thus an indicator of how long it takes to reach the gelling point and thus a certain initial solidity. Short times are thus more desirable. t95% is the time (in s) after which 95% of the entire reaction heat have been released and is thus an indicator of the rate at which a reaction occurs, lower values again being advantageous. DBC is the double bond conversion rate calculated based on the reaction heat released during polymerization (in J per g) of the respective formulation. For the conversion rate, it is desirable to achieve values that are as high as possible. In all formulations, the respective photoinitiator was used in an equimolar amount with respect to 1 wt % of ethyl pyruvate (1), which was the initiator having the lowest molecular weight, and weighed in accordingly, and co-initiators, if contained, were weighed in equimolar amounts with respect to the respective initiator. […] In this group of experiments, the experiments from Examples 1 to 4 and Comparative Example 1 were repeated, using a di-methacrylate mixture from the field of dental engineering as a monomer instead of the diacrylate that had been used above.

[4] = photo-DSC monitoring of photopolymerization in hexanediol diacrylate
Method: as §1, §2, §3, §4

[5] = photo-DSC monitoring of photopolymerization in divinyl adipate; conditions: monomer DVA, co-initiator DMAB
Method: In the following examples, of the inventive use of compounds of formula (I) as photo-initiators, reaction mixtures containing the respective photoinitiator, the specified liquid monomer and optionally a specified co-intiator were produced and cured for 10 min under a nitrogen atmosphere by exposure to an OmniCure® S2000 mercury lamp having a wave length filter of 320 to 500 nm and an UV light intensity of 1 W/cm^2, while the progress of the reactions was monitored by photo-DSC type […]1 Phoenix. All measurements were carried out at least twice, the respective tables showing the average values for the respective initiators. In the tables, RP represents the polymerization rate and is thus an indicator of the reactivity of a system. A high value means that many monomer groups are reacted at the same time and that the curing process is generally shorter. tmax is the time (in s) it takes until maximum heat development is reached and is thus an indicator of how long it takes to reach the gelling point and thus a certain initial solidity. Short times are thus more desirable. t95% is the time (in s) after which 95% of the entire reaction heat have been released and is thus an indicator of the rate at which a reaction occurs, lower values again being advantageous. DBC is the double bond conversion rate calculated based on the reaction heat released during polymerization (in J per g) of the respective formulation. For the conversion rate, it is desirable to achieve values that are as high as possible. In all formulations, the respective photoinitiator was used in an equimolar amount with respect to 1 wt % of ethyl pyruvate (1), which was the initiator having the lowest molecular weight, and weighed in accordingly, and co-initiators, if contained, were weighed in equimolar amounts with respect to the respective initiator. Subsequently, 12±0.5 mg of the reaction mixtures were weighed into DSC aluminum pans, and the pans were covered with cover glasses.

[6] = longwave absorption maximum; format: physicochemical
From the text: as §5

[7] = curing test in silicone mold, Intelli-Ray 400 W UV oven; conditions: 1 g HDDA with 1 wt % initiator, 100% power, after a few seconds
[8] = monomer DDM, co-initiator DMAB (Table 7)
[9] = monomer HDDA, co-initiator DMAB
[10] = monomer HDDA, co-initiator MDEA
[11] = monomer HDDA, no co-initiator listed (Table 3)
[12] = dental formulation DDM, co-initiator DMAB (Table 12)
[13] = methacrylates, co-initiator DMAB (Table 10)
[14] = acrylate (HDDA), co-initiator (Table 10, C8)
[15] = monomer HDDA, co-initiator shown only as drawing (Table 11)
[16] = monomer HDDA, co-initiator shown only as drawing (Table 13)
[17] = monomer HDDA, co-initiator shown only as drawing, reference is benzophenone/amine system (Table 11)
[18] = monomer HDDA, type I initiators, without any co-initiators (Table 5)
[19] = monomer HDDA, type I, without any co-initiators
[20] = HDDA, without any co-initiator (Table 10)
[21] = monomer HDDA, co-initiator thiol

For CN(C)CC(O)COc1ccc(C(=O)c2ccccc2)cc1.Cl (centres unmarked) [BPQ, 3-(4-benzoylphenoxy)-2-hydroxy-N,N-dimethylpropane-1-amine Hydrochloride, reference compound], the “concentration at which significant toxic effects were observed” value [1] was 8000 µM, the DBC ([2]; co-initiator MDEA) was 50% and the “RP (polymerization rate)” value ([2]; co-initiator MDEA) was 30 mmol/L/s. The t95% ([2]; co-initiator MDEA) was 87 s.

With COC(=O)C(=O)C(C)(C)C [Compound 4, 2-oxo-3,3-dimethylbutanoic Acid Methyl Ester] the DBC [3, 8] was 51%, the “RP (polymerization rate)” value [3, 8] was 55.9 mmol/L/s and the t95% [3, 8] was 69.5 s. The “DBC (double bond conversion)” value [4, 9] was 59.1%, the “RP (polymerization rate)” value [4, 9] was 170 mmol/L/s and the “t95% (time after which 95% of reaction heat released)” value [4, 9] was 42.5 s. For the same molecule, the DBC [4, 10] was 64.6%, the “RP (polymerization rate)” value [4, 10] was 234 mmol/L/s and the t95% [4, 10] was 41.0 s. The DBC [4, 11] was 64.6%, the “RP (polymerization rate)” value [4, 11] was 214 mmol/L/s and the t95% [4, 11] was 53.5 s.

In the case of CCOC(=O)C(C)=O [Compound 1, 2-Oxopropanoic Acid Ethyl Ester], the DBC [3, 8] was 57%, the “RP (polymerization rate)” value [3, 8] was 74.5 mmol/L/s and the t95% [3, 8] was 83.0 s. For the same molecule, the “DBC (double bond conversion)” value [4, 9] was 66.5%, the “RP (polymerization rate)” value [4, 9] was 230 mmol/L/s and the “t95% (time after which 95% of reaction heat released)” value [4, 9] was 41.7 s. The DBC [4, 11] was 69.3%, the “RP (polymerization rate)” value [4, 11] was 210 mmol/L/s and the t95% [4, 11] was 56.0 s. The Area [5] was 466 J/g, the DSC [5] was 1.7 mW · mg^−1 and the “longwave absorption maximum λmax” value [6] was 330 nm. For the same molecule, the DBC ([2]; without co-initiator) was 48%, the “RP (polymerization rate)” value ([2]; without co-initiator) was 33 mmol/L/s and the t95% ([2]; without co-initiator) was 83 s.

In the case of O=C(c1ccccc1)c1ccccc1 [BP, Benzophenone, reference compound], the DBC [3, 12] was 49%, the “RP (polymerization rate)” value [3, 12] was 21 mmol/L/s and the t95% [3, 12] was 143 s. The DBC [3, 13] was 49%, the “RP (polymerization rate)” value [3, 13] was 21 mmol/L/s and the t95% [3, 13] was 143 s. The DBC [3, 8] was 50%, the “RP (polymerization rate)” value [3, 8] was 21.4 mmol/L/s and the t95% [3, 8] was 146.5 s. For the same molecule, the DBC [4, 14] was 69%, the “RP (polymerization rate)” value [4, 14] was 93 mmol/L/s and the t95% [4, 14] was 69 s. For the same molecule, the “DBC (double bond conversion)” value [4, 9] was 68.9%, the “RP (polymerization rate)” value [4, 9] was 96 mmol/L/s and the “t95% (time after which 95% of reaction heat released)” value [4, 9] was 85.5 s. The DBC [4, 10] was 69.3%, the “RP (polymerization rate)” value [4, 10] was 109 mmol/L/s and the t95% [4, 10] was 77.0 s. It also gave a DBC [4, 15] of 69%, a t95% [4, 15] of 69 s and a DBC [4, 16] of 69%. For the same molecule, the “RP (polymerization rate)” value [4, 16] was 93 mmol/L/s, the t95% [4, 16] was 69 s and the “RP (polymerization rate)” value [4, 17] was 93 mmol/L/s. The Area [5] was 642 J/g and the DSC [5] was 4.37 mW · mg^−1.

For CCOC(=O)C(=O)c1ccccc1 [PGO, Ethyl Phenylglyoxylate, reference compound], the DBC [4, 11] was 75.1%, the “RP (polymerization rate)” value [4, 11] was 204 mmol/L/s and the t95% [4, 11] was 63.0 s.

For CCOC(=O)CCC(=O)C(=O)OCC [Compound 9, α-Ketoglutaric Acid Diethyl Ester], the DBC [3, 12] was 53%, the “RP (polymerization rate)” value [3, 12] was 66 mmol/L/s and the t95% [3, 12] was 85 s. The DBC [4, 15] was 67%, the t95% [4, 15] was 58 s and the “RP (polymerization rate)” value [4, 17] was 201 mmol/L/s.

With CC(C)(Br)C(=O)c1ccccc1 [BD, 2-bromo-2-methyl-1-phenylpropan-1-one, reference compound] the “RP (polymerization rate)” value [4, 18] was 146 mmol/L/s, the DBC [4, 19] was 57.6% and the t95% [4, 19] was 62.5 s.

In the case of CCOC(=O)C(=O)C(C)(C)Br [Compound 5, 3-bromo-3-methyl-2-oxobutanoic Acid Ethyl Ester], the “RP (polymerization rate)” value [4, 18] was 239 mmol/L/s, the DBC [4, 19] was 62.1% and the t95% [4, 19] was 40.0 s.

In the case of CC1(C)COC(=O)C1=O [Compound 8, 4,4-dimethyldihydrofuran-2,3-dione], the DBC [3, 13] was 54%, the “RP (polymerization rate)” value [3, 13] was 52 mmol/L/s and the t95% [3, 13] was 90 s. The DBC [4, 20] was 66%, the “RP (polymerization rate)” value [4, 20] was 189 mmol/L/s and the t95% [4, 20] was 58 s. For the same molecule, the “longwave absorption maximum λmax” value [6] was 378 nm, the DBC ([2]; without co-initiator) was 56% and the “RP (polymerization rate)” value ([2]; without co-initiator) was 26 mmol/L/s. It also gave a t95% ([2]; without co-initiator) of 78 s.

In the case of C=C(C)C(=O)OCCOC(=O)CCC(=O)C(=O)OCCOC(=O)C(=C)C [Compound 11, α-Ketoglutaric Acid di(hydroxyethylmethacrylate) Ester], the DBC [3, 12] was 52%, the “RP (polymerization rate)” value [3, 12] was 57 mmol/L/s and the t95% [3, 12] was 93 s. For the same molecule, the DBC [4, 15] was 64%, the t95% [4, 15] was 53 s and the “RP (polymerization rate)” value [4, 17] was 203 mmol/L/s.

In the case of CCOC(=O)C(=O)C(C)(C)O [Compound E5], the “DBC (double bond conversion)” value [4, 9] was 63.1%, the “RP (polymerization rate)” value [4, 9] was 218 mmol/L/s and the “t95% (time after which 95% of reaction heat released)” value [4, 9] was 73.0 s.

In the case of CCC(=O)C(=O)OC [Compound 2, 2-oxobutanoic Acid Methyl Ester], the DBC [3, 8] was 57%, the “RP (polymerization rate)” value [3, 8] was 71.2 mmol/L/s and the t95% [3, 8] was 85.5 s. For the same molecule, the “DBC (double bond conversion)” value [4, 9] was 60.9%, the “RP (polymerization rate)” value [4, 9] was 204 mmol/L/s and the “t95% (time after which 95% of reaction heat released)” value [4, 9] was 40.5 s.

In the case of CCOC(=O)C(=O)C(C)C [Compound 3, 2-oxo-3-Methylbutanoic Acid Ethyl Ester], the DBC [3, 8] was 57%, the “RP (polymerization rate)” value [3, 8] was 81.5 mmol/L/s and the t95% [3, 8] was 58.5 s. For the same molecule, the “DBC (double bond conversion)” value [4, 9] was 65.8%, the “t95% (time after which 95% of reaction heat released)” value [4, 9] was 36.6 s and the “RP (polymerization rate)” value ([4]; monomer HDDA, co-initiator DMAB, listed as E3) was 241 mmol/L/s and 241.0 mmol/L/s. The DBC [4, 10] was 65.2%, the “RP (polymerization rate)” value [4, 10] was 228 mmol/L/s and the t95% [4, 10] was 56.5 s. For the same molecule, the “RP (polymerization rate)” value ([4]; monomer HDDA, co-initiator pentaerythritol-tetrakis(3-mercaptopropionate) (thiol)) was 233.5 mmol/L/s, the DBC [4, 21] was 68.0% and the t95% [4, 21] was 45.0 s.

In the case of CC(=O)C(=O)OCCN(C)C [Compound 10, N,N′-dimethylaminopyruvate], the “result of curing test” value [7] was “transparent, hard sample rod was obtained”.
